Counter-ions that a name gives are not always drawn.

For the assay, the system named is cancer cell lines. In words: Growth inhibitory effects on the panel of cancer cell lines. The format is cell-based. As to conditions: drug 10 μM, 72 hours, WST-1. For orientation: Formazan colour is commonly taken as a measure of viable cells.
Turning to `CNCC(O)c1ccc(O)c(O)c1` (racemic) [DL-Adrenaline], the “inhibition effect on different cancer cell lines (in words)” value was “significant inhibition effect”.
The result for `C[N+](C)(C)CC(O)CC(=O)O.[Cl-]` (racemic) [DL-Carnitine hydrochloride] reads “significant inhibition effect”; that for `CC(C)NC[C@@H](O)COc1ccc(CC(N)=O)cc1` [(R)-(+)-Atenolol], “significant inhibition effect”; that for `Nc1ncnc2c1ncn2[C@@H]1O[C@H](CO)[C@@H](O)[C@H]1O` [Adenosine (Adenocard), Adenosine], “significant inhibition effect”.
With `CNCC(=O)c1ccc(O)c(O)c1` [Adrenalone HCl] the entry was “significant inhibition effect”; with `COc1cc2nc(N(C)CCCNC(=O)C3CCCO3)nc(N)c2cc1OC` (stereo not drawn) [Alfuzosin hydrochloride (Uroxatral), Alfuzosin hydrochloride], “significant inhibition effect”.
With `NC12CC3CC(CC(C3)C1)C2` [Amantadine hydrochloride (Symmetrel), Amantadine hydrochloride] the entry was “significant inhibition effect”; with `N=C(N)NC(=O)c1nc(Cl)c(N)nc1N` [Amiloride hydrochloride dihydrate], “significant inhibition effect”.
In the case of `CCCCc1oc2ccccc2c1C(=O)c1cc(I)c(OCCN(CC)CC)c(I)c1` [Amiodarone HCl], the “inhibition effect on different cancer cell lines (in words)” value is on record as “significant inhibition effect”.
With `CCOC(=O)OC(C)OC1=C(C(=O)Nc2ccccn2)N(C)S(=O)(=O)c2ccccc21` (stereo not drawn) [Ampiroxicam] the entry was “significant inhibition effect”; with `COc1ccc(C2C(=O)c3ccccc3C2=O)cc1` [Anisindione], “significant inhibition effect”; with `COc1ccc(-n2nc(C(N)=O)c3c2C(=O)N(c2ccc(N4CCCCC4=O)cc2)CC3)cc1` [Apixaban], “significant inhibition effect”.
The result for `CC1CNc2c(cccc2S(=O)(=O)N[C@@H](CCCNC(=N)N)C(=O)N2CC[C@@H](C)C[C@@H]2C(=O)O)C1` (stereo partly drawn) [Argatroban] reads “significant inhibition effect”; that for `CCOc1nc2cccc(C(=O)OCc3oc(=O)oc3C)c2n1Cc1ccc(-c2ccccc2-c2noc(=O)[nH]2)cc1` [Azilsartan Medoxomil (TAK-491), Azilsartan Medoxomil], “significant inhibition effect”.
With `NS(=O)(=O)c1cc2c(cc1C(F)(F)F)NC(Cc1ccccc1)NS2(=O)=O` (stereo not drawn) [Bendroflumethiazide] the entry was “significant inhibition effect”; with `NS(=O)(=O)c1cc2c(cc1Cl)N=C(CSCc1ccccc1)NS2(=O)=O` [Benzthiazide], “significant inhibition effect”.
Take `N[C@@H]1CCCCN(c2c(F)cc3c(=O)c(C(=O)O)cn(C4CC4)c3c2Cl)C1` [Besifloxacin HCl (Besivance), Besifloxacin HCl]: the “inhibition effect on different cancer cell lines (in words)” value was “significant inhibition effect”.
With `CC(C)NCC(O)COc1ccc(CCOCC2CC2)cc1` (stereo not drawn) [Betaxolol hydrochloride (Betoptic), Betaxolol hydrochloride] the entry was “significant inhibition effect”; with `C=C(c1ccc(C(=O)O)cc1)c1cc2c(cc1C)C(C)(C)CCC2(C)C` [Bexarotene], “significant inhibition effect”.
The result for `CCNC(=O)CCC/C=C\C[C@@H]1[C@@H](/C=C/[C@@H](O)CCc2ccccc2)[C@H](O)C[C@@H]1O` [Bimatoprost] reads “significant inhibition effect”; that for `CN(Cc1cc(Br)cc(Br)c1N)C1CCCCC1` [Bromhexine HCl], “significant inhibition effect”.
Turning to `CS(=O)(=O)OCCCCOS(C)(=O)=O` [Busulfan (Myleran, Busulfex), Busulfan], the “inhibition effect on different cancer cell lines (in words)” value was “significant inhibition effect”.
Regarding `CCOc1nc2cccc(C(=O)OC(C)OC(=O)OC3CCCCC3)c2n1Cc1ccc(-c2ccccc2-c2nnn[nH]2)cc1` (stereo not drawn) [Candesartan cilexetil (Atacand), Candesartan cilexetil], the “inhibition effect on different cancer cell lines (in words)” value is “significant inhibition effect”.
With `CC(C)C[C@H](NC(=O)[C@H](CCc1ccccc1)NC(=O)CN1CCOCC1)C(=O)N[C@@H](Cc1ccccc1)C(=O)N[C@@H](CC(C)C)C(=O)[C@@]1(C)CO1` [Carfilzomib (PR-171), Carfilzomib] the entry was “significant inhibition effect”; with `COc1ccccc1OCCNCC(O)COc1cccc2[nH]c3ccccc3c12` (stereo not drawn) [Carvedilol], “significant inhibition effect”.
On to `NS(=O)(=O)c1cc2c(cc1Cl)N=CNS2(=O)=O` [Chlorothiazide], for which the “inhibition effect on different cancer cell lines (in words)” value is recorded as “significant inhibition effect”.
The result for `CCOC(=O)[C@H](CCc1ccccc1)N[C@H]1CCCN2CCC[C@@H](C(=O)O)N2C1=O` [Cilazapril monohydrate (Inhibace), Cilazapril monohydrate] reads “significant inhibition effect”.
With `O=C1CCc2cc(OCCCCc3nnnn3C3CCCCC3)ccc2N1` [Cilostazol] the entry was “significant inhibition effect”.
With `CCCC(=O)OCOC(=O)C1=C(C)NC(C)=C(C(=O)OC)C1c1cccc(Cl)c1Cl` (stereo not drawn) [Cleviprex (Clevidipine), Clevidipine], the “inhibition effect on different cancer cell lines (in words)” value is recorded as “significant inhibition effect”.
As to `COC(=O)[C@H](c1ccccc1Cl)N1CCc2sccc2C1` [Clopidogrel (Plavix), Clopidogrel], the “inhibition effect on different cancer cell lines (in words)” value is reported as “significant inhibition effect”.
The result for `CC(C)NCC(O)c1ccccc1Cl` (stereo not drawn) [Clorprenaline HCL] reads “significant inhibition effect”.
With `Cc1onc(-c2ccccc2Cl)c1C(=O)N[C@@H]1C(=O)N2[C@@H]1SC(C)(C)[C@@H]2C(=O)O` [Cloxacillin sodium (Cloxacap), Cloxacillin sodium] the entry was “significant inhibition effect”; with `Cc1nc2c([nH]1)-c1ccccc1N(C(=O)c1ccc(NC(=O)c3ccccc3-c3ccccc3)cc1)CC2` [Conivaptan HCl (Vaprisol), Conivaptan HCl], “significant inhibition effect”.
With `Nc1ccn([C@@H]2O[C@H](CO)[C@@H](O)[C@H]2O)c(=O)n1` [Cytidine] the entry was “significant inhibition effect”.
For `OC[C@@H](O)[C@@H](O)[C@H](O)[C@H](O)CO` [D-Mannitol (Osmitrol), D-Mannitol], the “inhibition effect on different cancer cell lines (in words)” value is “significant inhibition effect”.
For `O=c1c(-c2ccc(O)cc2)coc2cc(O)ccc12` [Daidzein], the “inhibition effect on different cancer cell lines (in words)” value is recorded as “significant inhibition effect”.
With `Cc1c(O)c(=O)ccn1C` [Deferiprone] the entry was “significant inhibition effect”.
The result for `Oc1ccc(OC2CCCCO2)cc1` (stereo not drawn) [Deoxyarbutin] reads “significant inhibition effect”; that for `C[C@@H](CN1CC(=O)NC(=O)C1)N1CC(=O)NC(=O)C1` [Dexrazoxane Hydrochloride], “significant inhibition effect”; that for `NS(=O)(=O)c1cc(Cl)c(Cl)c(S(N)(=O)=O)c1` [Dichlorphenamide (Diclofenamide), Dichlorphenamide], “significant inhibition effect”.
The result for `COc1ccc([C@@H]2Sc3ccccc3N(CCN(C)C)C(=O)[C@@H]2OC(C)=O)cc1` [Diltiazem HCl (Tiazac), Diltiazem HCl] reads “significant inhibition effect”; that for `CN(CCOc1ccc(NS(C)(=O)=O)cc1)CCc1ccc(NS(C)(=O)=O)cc1` [Dofetilide (Tikosyn), Dofetilide], “significant inhibition effect”.
On to `COc1cc2nc(N3CCN(C(=O)C4COc5ccccc5O4)CC3)nc(N)c2cc1OC` (stereo not drawn) [Doxazosin mesylate], for which the “inhibition effect on different cancer cell lines (in words)” value was “significant inhibition effect”.
With `CC1=NN(c2ccccc2)C(=O)C1` [Edaravone (MCI-186), Edaravone] the entry was “significant inhibition effect”; with `CCOC(=O)[C@H](CCc1ccccc1)N[C@@H](C)C(=O)N1CCC[C@H]1C(=O)O` [Enalapril maleate (Vasotec), Enalapril maleate], “significant inhibition effect”.
For `C[C@H](N[C@@H](CCc1ccccc1)C(=O)O)C(=O)N1CCC[C@H]1C(=O)O.O.O` [Enalaprilat dehydrate], the “inhibition effect on different cancer cell lines (in words)” value is recorded as “significant inhibition effect”.
With `COC(=O)[C@@H]1CC2=CC(=O)CC[C@]2(C)[C@@]23O[C@@H]2C[C@@]2(C)[C@@H](CC[C@@]24CCC(=O)O4)[C@H]13` [Eplerenone] the entry was “significant inhibition effect”.
With `CCCCc1ncc(/C=C(\Cc2cccs2)C(=O)O)n1Cc1ccc(C(=O)O)cc1` [Eprosartan Mesylate] the entry was “significant inhibition effect”; with `COC(=O)CCc1ccc(OCC(O)CNC(C)C)cc1` (stereo not drawn) [Esmolol HCl], “significant inhibition effect”; with `O=S(=O)(O)c1cc(O)ccc1O` [Ethamsylate], “significant inhibition effect”.
The result for `O=C1[C@H](CC[C@H](O)c2ccc(F)cc2)[C@@H](c2ccc(O)cc2)N1c1ccc(F)cc1` [Ezetimibe (Zetia), Ezetimibe] reads “significant inhibition effect”.

These data come from patent US20170304388A1, “NEW INDICATION OF CARDIOVASCULAR DRUGS FOR PREPARATION OF CANCER INHIBITION PHARMACEUTICAL COMPOSITION” (LAUNX BIOMEDICAL CO., LTD., priority 2014, published 2017).
